Source: patent US20250346602A1, “LACTAM SUBSTITUTED IMIDAZOPYRIDAZINE IL-17A MODULATORS AND USES THEREOF” (DICE ALPHA, INC., priority 2022, published 2025)

The molecules below were run against T1, IL-17A/A (Homo sapiens, UniProt Q16552) (assay: IL-17A/A HEK-Blue cell assay). Settings: HEK-Blue IL-17A reporter cell line (HEK 293), IL-17A/A stimulation, 20 hours incubation, SEAP read at A630.
T1 construct: purchased Genscript Z03228
T1 sequence (Q16552 24-155): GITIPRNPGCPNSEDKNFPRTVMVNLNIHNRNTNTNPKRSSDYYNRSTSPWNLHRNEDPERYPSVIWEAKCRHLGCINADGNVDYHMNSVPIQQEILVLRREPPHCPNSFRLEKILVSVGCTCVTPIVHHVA
Type: cell-based
Description: The HEK-Blue IL-17A reporter cell line (Fisher #NC1408637) was used for cell-based IL-17A/A inhibition assays. Cells were grown and prepared for assays according to the manufacturer's instructions. This cell line consists of HEK 293 cells that were designed to expressed IL-17RA, IL-17RC, and the ActI adapter molecule, the combination of which, when stimulated by IL-17A/A activates a NFκB promoter and drives expression of a recombinant Secreted Alkaline Phosphatase (SEAP) gene protein. Media from the cells is then added to a development reagent (Quanti-Blue Substrate, Fisher #NC9711613), and read at A630.
Compounds were titrated in DMSO, with a top final compound concentration of 10 uM, 1 uM, or 0.3 uM, and added to the cells immediately before adding IL-17A/A (Genscript #Z03228). The cells, compound, and IL-17A/A were then incubated for 20 hours before media was removed for SEAP analysis. The resulting inhibition curve was then analyzed using Graphpad Prism 7.0, and IC50 values were determined using a 4-parameter nonlinear fit. DMSO was added to a universal final concentration of 0.1% to optimize background.
Molecule CCc1nonc1C(=O)N[C@H](c1cn2nc(C[C@H]3C[C@@H](C(F)(F)F)NC3=O)ccc2n1)C1CCC(F)(F)CC1 [Compound 17, N—((S)-(4,4-difluorocyclohexyl)(6-(((3R,5S)-2-oxo-5-(trifluoromethyl)pyrrolidin-3-yl)methyl)imidazo[1,2-b]pyridazin-2-yl)methyl)-4-ethyl-1,2,5-oxadiazole-3-carboxamide] has an IC50 of 100 to 1000 nM. Cc1nonc1C(=O)N[C@H](c1cn2nc(CC3C[C@@H](C(F)(F)F)CNC3=O)ccc2n1)C1CCC(F)(F)CC1 (stereo partly drawn) [Compound 100, N-((1S)-(4,4-difluorocyclohexyl)(6-(((5R)-2-oxo-5-(trifluoromethyl)piperidin-3-yl)methyl)imidazo[1,2-b]pyridazin-2-yl)methyl)-4-methyl-1,2,5-oxadiazole-3-carboxamide] showed an IC50 of 100 to 1000 nM. For O=C(N[C@H](c1cn2nc(CC3C[C@H](C(F)(F)F)CNC3=O)ccc2n1)[C@H]1CCCC(F)(F)C1)c1conc1C1CC1 (stereo partly drawn) [Compound 157, 3-cyclopropyl-N-((1S)—((S)-3,3-difluorocyclohexyl)(6-(((5S)-2-oxo-5-(trifluoromethyl)piperidin-3-yl)methyl)imidazo[1,2-b]pyridazin-2-yl)methyl)isoxazole-4-carboxamide], the IC50 was less than 100 nM. With Cn1c(C#N)ccc1C(=O)N[C@H](c1cn2nc(CC3C[C@@H](C(F)(F)F)CNC3=O)ccc2n1)C1CCC(F)(F)CC1 (stereo partly drawn) [Compound 133, 5-cyano-N-((1S)-(4,4-difluorocyclohexyl)(6-(((5R)-2-oxo-5-(trifluoromethyl)piperidin-3-yl)methyl)imidazo[1,2-b]pyridazin-2-yl)methyl)-1-methyl-1H-pyrrole-2-carboxamide] the IC50 was 100 to 1000 nM. Molecule CCn1nccc1C(=O)N[C@H](c1cn2nc(CC3CCCNC3=O)ccc2n1)C1CCCCCC1 (single isomer, unassigned) [Compound 12] has an IC50 of less than 100 nM. With CCn1nccc1C(=O)N[C@H](c1cn2nc(CC3CCNC3=O)ccc2n1)C1CCCCCC1 (single isomer, unassigned) [Compound 4] the IC50 was 100 to 1000 nM. O=C(N[C@H](c1cn2nc(CC3C[C@@H](C(F)(F)F)CNC3=O)ccc2n1)C1CCC(F)(F)CC1)c1conc1CC(F)F (stereo partly drawn) [Compound 120, N-((1S)-(4,4-difluorocyclohexyl)(6-(((5R)-2-oxo-5-(trifluoromethyl)piperidin-3-yl)methyl)imidazo[1,2-b]pyridazin-2-yl)methyl)-3-(2,2-difluoroethyl)isoxazole-4-carboxamide] was tested, and the IC50 was 100 to 1000 nM. O=C(N[C@H](c1cn2nc(CC3C[C@@H](C(F)(F)F)CNC3=O)ccc2n1)C1CCC(F)(F)CC1)c1conc1C12CC(F)(C1)C2 (stereo partly drawn) [Compound 140, N-((1S)-(4,4-difluorocyclohexyl)(6-(((5R)-2-oxo-5-(trifluoromethyl)piperidin-3-yl)methyl)imidazo[1,2-b]pyridazin-2-yl)methyl)-3-(3-fluorobicyclo[1.1.1]pentan-1-yl)isoxazole-4-carboxamide] was tested, and the IC50 was 100 to 1000 nM. CCn1nccc1C(=O)N[C@H](c1cn2nc(CC3CC(C)(F)CNC3=O)ccc2n1)C(C1CC1)C1CC1 (mixture of isomers) [Compound 40, N-((1S)-2,2-dicyclopropyl-1-(6-((5-fluoro-5-methyl-2-oxopiperidin-3-yl)methyl)imidazo[1,2-b]pyridazin-2-yl)ethyl)-1-ethyl-1H-pyrazole-5-carboxamide] showed an IC50 greater than 1000 nM. CCn1nccc1C(=O)N[C@H](c1cn2nc(CC3CC(C4CC4)CNC3=O)ccc2n1)C1CCC(F)(F)CC1 (single isomer, unassigned) [Compound 71] was tested, and the IC50 was 100 to 1000 nM. CCn1nccc1C(=O)N[C@H](c1cn2nc(CC3CC(C(C)(F)F)NC3=O)ccc2n1)C1CCC(F)(F)CC1 (single isomer, unassigned) [Compound 68] showed an IC50 greater than 1000 nM. For CCn1nccc1C(=O)N[C@H](c1cn2nc(CC3C[C@@H](C(F)(F)F)CNC3=O)c(C(C)(C)O)cc2n1)C1CCC(F)(F)CC1 (stereo partly drawn) [Compound 186, N-((1S)-(4,4-difluorocyclohexyl)(7-(2-hydroxypropan-2-yl)-6-(((5R)-2-oxo-5-(trifluoromethyl)piperidin-3-yl)methyl)imidazo[1,2-b]pyridazin-2-yl)methyl)-1-ethyl-1H-pyrazole-5-carboxamide], the IC50 was less than 100 nM. C[C@H]1CC[C@H]([C@H](NC(=O)c2nonc2N)c2cn3nc(CC4C[C@@H](C(F)(F)F)CNC4=O)ccc3n2)CC1 (stereo partly drawn) [Compound 164, 4-amino-N-((1S)—((1R.4S)-4-methylcyclohexyl)(6-(((5R)-2-oxo-5-(trifluoromethyl)piperidin-3-yl)methyl)imidazo[1,2-b]pyridazin-2-yl)methyl)-1,2,5-oxadiazole-3-carboxamide] showed an IC50 greater than 1000 nM. For O=C(N[C@H](c1cn2nc(C[C@H]3C[C@@H](C(F)(F)F)NC3=O)ccc2n1)C1CCC(F)(F)CC1)c1nonc1C1CC1 (single isomer, unassigned) [Compound 19], the IC50 was 100 to 1000 nM. O=C(N[C@H](c1cn2nc(CC3C[C@@H](C(F)(F)F)CNC3=O)ccc2n1)C1CCC(F)(F)CC1)c1ccnn1CCF (stereo partly drawn) [Compound 101, N-((1S)-(4,4-difluorocyclohexyl)(6-(((5R)-2-oxo-5-(trifluoromethyl)piperidin-3-yl)methyl)imidazo[1,2-b]pyridazin-2-yl)methyl)-1-(2-fluoroethyl)-1H-pyrazole-5-carboxamide] showed an IC50 of 100 to 1000 nM. CCn1nccc1C(=O)N[C@H](c1cn2nc(CC3CC(CC(F)(F)F)CNC3=O)ccc2n1)C1CCC(F)(F)CC1 (single isomer, unassigned) [Compound 66] was tested, and the IC50 was 100 to 1000 nM. Molecule CCn1nccc1C(=O)N[C@H](c1cn2nc(CC3CC(C(F)(F)F)CNC3=O)ccc2n1)C1CCCCCC1 (single isomer, unassigned) [Compound 195] has an IC50 greater than 1000 nM. In the case of O=C(N[C@H](c1cn2nc(CC3C[C@@H](C(F)(F)F)CNC3=O)ccc2n1)C1CCC(F)(F)CC1)c1ccnn1C1CC1(F)F (single isomer, unassigned) [Compound 99], the IC50 is reported as 100 to 1000 nM. O=C(N[C@H](c1cn2nc(CC3C[C@@H](C(F)(F)F)CNC3=O)ccc2n1)C1CCC(F)(F)CC1)c1conc1C1CC(F)(F)C1 (stereo partly drawn) [Compound 124, 3-(3,3-difluorocyclobutyl)-N-((1S)-(4,4-difluorocyclohexyl)(6-(((5R)-2-oxo-5-(trifluoromethyl)piperidin-3-yl)methyl)imidazo[1,2-b]pyridazin-2-yl)methyl)isoxazole-4-carboxamide] showed an IC50 of 100 to 1000 nM. Molecule O=C(N[C@H](c1cn2nc(CC3C[C@@H](C(F)(F)F)CNC3=O)ccc2n1)C1CCC(F)(F)CC1)c1ccnn1C1CC1(F)F (single isomer, unassigned) [Compound 98] has an IC50 of less than 100 nM. For CCN(C)c1cc2nc([C@@H](NC(=O)c3ccnn3CC)C3CCC(F)(F)CC3)cn2nc1CC1C[C@@H](C(F)(F)F)CNC1=O (single isomer, unassigned) [Compound 89], the IC50 was less than 100 nM. CCn1nccc1C(=O)N[C@H](c1cn2ncc(CC3C[C@@H](C(F)(F)F)NC3=O)cc2n1)[C@H]1CC[C@H](C)CC1 (single isomer, unassigned) [Compound 212] showed an IC50 of less than 100 nM. CCc1nonc1C(=O)N[C@H](c1cn2nc(C[C@H]3CCCNC3=O)ccc2n1)C1CCC(F)(F)CC1 [Compound 37, N—((S)-(4,4-difluorocyclohexyl)(6-(((R)-2-oxopiperidin-3-yl)methyl)imidazo[1,2-b]pyridazin-2-yl)methyl)-4-ethyl-1,2,5-oxadiazole-3-carboxamide] gave an IC50 greater than 1000 nM. CCn1nccc1C(=O)N[C@H](c1cn2nc(CC3C[C@@H](C(F)(F)F)CNC3=O)ccc2n1)[C@H]1CC[C@H](C)CC1 (stereo partly drawn) [Compound 97, 1-ethyl-N-((1S)-((1R.4S)-4-methylcyclohexyl)(6-(((5R)-2-oxo-5-(trifluoromethyl)piperidin-3-yl)methyl)imidazo[1,2-b]pyridazin-2-yl)methyl)-1H-pyrazole-5-carboxamide] showed an IC50 of 100 to 1000 nM. For CCn1nccc1C(=O)NC(c1cn2nc(CC3CC(F)(F)CNC3=O)ccc2n1)C1CCC(C)CC1 (single isomer, unassigned) [Compound 26], the IC50 was 100 to 1000 nM. O=C(N[C@H](c1cn2ncc(CC3C[C@@H](C(F)(F)F)NC3=O)cc2n1)C1CCC(F)(F)CC1)c1nonc1C1CC1 (single isomer, unassigned) [Compound 205] showed an IC50 of less than 100 nM. O=C(N[C@H](c1cn2nc(CC3C[C@@H](C(F)(F)F)CNC3=O)ccc2n1)C1CCC(F)(F)CC1)c1ccnn1CC(F)F (stereo partly drawn) [Compound 106, N-((1S)-(4,4-difluorocyclohexyl)(6-(((5R)-2-oxo-5-(trifluoromethyl)piperidin-3-yl)methyl)imidazo[1,2-b]pyridazin-2-yl)methyl)-1-(2,2-difluoroethyl)-1H-pyrazole-5-carboxamide] showed an IC50 of 100 to 1000 nM. CC(C)n1nccc1C(=O)N[C@H](c1cn2nc(CC3C[C@H](C(F)(F)F)CNC3=O)ccc2n1)[C@@H]1CCCC(F)(F)C1 (stereo partly drawn) [Compound 160, N-((1S)—((R)-3,3-difluorocyclohexyl)(6-(((5S)-2-oxo-5-(trifluoromethyl)piperidin-3-yl)methyl)imidazo[1,2-b]pyridazin-2-yl)methyl)-1-isopropyl-1H-pyrazole-5-carboxamide] showed an IC50 of less than 100 nM. CCn1nccc1C(=O)N[C@H](c1cn2nc(CC3CC(CC(F)(F)F)CNC3=O)ccc2n1)C1CCC(F)(F)CC1 (single isomer, unassigned) [Compound 65] showed an IC50 of 100 to 1000 nM.
